{
  "source": "ChEMBL document CHEMBL5344466",
  "about": "“Pyrrolidinone Derivatives as NIK Inhibitors for Treating Inflammatory and Autoimmune Diseases” (ACS Med Chem Lett, 2024)",
  "data": [
    {"molecular_target": "Mitogen-activated protein kinase kinase kinase 14 (Homo sapiens, UniProt Q99558)", "sequence (Q99558 whole entry)": "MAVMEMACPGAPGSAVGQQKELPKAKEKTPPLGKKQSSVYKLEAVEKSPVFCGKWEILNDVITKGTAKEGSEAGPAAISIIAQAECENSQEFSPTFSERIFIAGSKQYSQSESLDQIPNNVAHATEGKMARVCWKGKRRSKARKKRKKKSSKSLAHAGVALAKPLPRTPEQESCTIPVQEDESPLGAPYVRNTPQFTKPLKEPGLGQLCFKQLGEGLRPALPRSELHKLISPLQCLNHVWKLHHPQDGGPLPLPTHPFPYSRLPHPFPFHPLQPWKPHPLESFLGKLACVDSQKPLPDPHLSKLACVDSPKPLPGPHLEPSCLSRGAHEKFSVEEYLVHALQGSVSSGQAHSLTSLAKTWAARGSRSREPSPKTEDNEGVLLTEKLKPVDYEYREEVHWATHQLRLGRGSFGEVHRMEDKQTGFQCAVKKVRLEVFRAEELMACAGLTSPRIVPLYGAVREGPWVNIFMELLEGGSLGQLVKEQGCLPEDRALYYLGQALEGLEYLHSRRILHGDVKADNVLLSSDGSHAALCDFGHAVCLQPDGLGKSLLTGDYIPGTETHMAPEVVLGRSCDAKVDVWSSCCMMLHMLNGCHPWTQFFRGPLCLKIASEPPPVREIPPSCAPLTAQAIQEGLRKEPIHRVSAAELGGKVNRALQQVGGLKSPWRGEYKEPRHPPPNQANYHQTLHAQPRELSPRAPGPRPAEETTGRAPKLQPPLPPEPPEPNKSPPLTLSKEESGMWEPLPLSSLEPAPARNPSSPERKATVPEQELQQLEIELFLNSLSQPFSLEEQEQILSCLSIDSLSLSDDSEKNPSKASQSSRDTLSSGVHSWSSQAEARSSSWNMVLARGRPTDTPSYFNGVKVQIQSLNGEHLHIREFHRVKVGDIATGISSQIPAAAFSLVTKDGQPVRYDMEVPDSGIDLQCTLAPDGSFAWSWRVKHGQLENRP", "assay": "Inhibition of auto-phosphorylation of human GST-tagged NIK/MAP3K14 measured for 2 hrs by AlphaScreen assay", "units": {"IC50": "nM"}, "values": [
      {"compound": "CN1CC[C@@](O)(c2cc(-c3cccc(-c4cc(N5CC(F)(F)C5)cc(C(N)=O)n4)c3)no2)C1=O", "IC50": "< 100"},
      {"compound": "CN1CCC(O)(c2cn(-c3cccc(-c4nc(C(N)=O)c5ccccc5n4)c3)cn2)C1=O", "note": "(stereo unspecified)", "IC50": "< 100"},
      {"compound": "CN1CC[C@@](O)(c2cc(-c3cccc(-c4cc(C5CC5)nc(C(N)=O)n4)c3)no2)C1=O", "IC50": "< 100"},
      {"compound": "[2H]c1nc(N)c2nc(-c3cccc(-c4cnc([C@@]5(O)CCN(C)C5=O)s4)c3)ccc2n1", "IC50": "< 100"},
      {"compound": "CN1CC[C@@](O)(c2cc(-c3cccc(-c4ccc(C(N)=O)o4)c3)no2)C1=O", "IC50": "< 100"},
      {"compound": "CN1CC[C@@](O)(c2cc(-c3cccc(-c4nc(C(N)=O)c(Br)s4)c3)no2)C1=O", "IC50": "< 100"}
    ]}
  ]
}
